# Source: US20160153052A1, “MARKER TO PREDICT AND MONITOR RESPONSE TO AURORA KINASE B INHIBITOR THERAPY” (AbbVie Inc., priority 2014, published 2016)
# Legend:
# [1] = system: cycling cells in blood of patients; assay: Flow cytometry of patient blood, pharmacodynamic activity (≧4N cells); assay type: in vivo, human; conditions: patients treated with ABT-348; associated with percentage of cycling cells at baseline (FIG. 3)
# Experimental: Blood of patients was added to lyse fix buffer (BD Biosciences). After lysis of red blood cells, the sample was washed, and permeabilized using Phosflow Perm/wash buffer (BD Biosciences). The sample was incubated for 15 minutes with DAPI (75 ng/mL) before analyzing on a flow cytometer.
# OCI-AML2 cells = assay: Drug sensitivity of OCI-AML2 cells after p16 shRNA knockdown; assay type: cell-based; conditions: p16 shRNA versus control shRNA, mimics CDKN2A deletion (FIG. 7)
# Experimental: OCI AML2 cells were infected with control or three p16 shRNA from Sigma (MO). Infected cells were selected with 1 μM puromycin. After selection, cells were used in drug treatment experiments. All cells were maintained at 37° C. in 5% CO2.
# One gene product of the CDKN2A locus is p16. Therefore shRNA was used to decrease p16 expression to mimic a situation of CDKN2A deletion. […] Given ABT-348 is a dual inhibitor of VEGF and Aurora kinase B inhibitors, ABT-869, which inhibits VEGF but not Aurora kinase B inhibitors was included to confirm the effect was specific to Aurora kinase B inhibitors inhibition.
# [2] = system: panel of cell lines with and without CDKN2A deletion; assay: Sensitivity to Aurora kinase inhibitors in a panel of cell lines with and without CDKN2A deletion; assay type: cell-based; conditions: cell line panel (FIG. 4 bottom left, FIG. 6)
# Experimental: AML cell lines were obtained from the American Type Culture Collection (ATCC; Manassas, Va.) and propagated according to ATCC recommendations.
# Based on observation, it was hypothesized that patient samples with a high proportion of cells in G2/M (ie. cycling) would be sensitive to ABT-348. Therefore, a database search was performed to identify genotypes likely to overexpress Aurora kinase B given its expression is increased in M phase of cell cycle (top left). […] Data from Cancer Cell Line Encyclopedia (CCLE) supported this hypothesis (top right). Sensitivity to Aurora kinase inhibitors including ABT-348 was assessed in a panel of cell lines with and without this deletion (bottom left). […] CDKN2A status was then assessed by in situ hybridization in patient samples from ABT-348 trials. An example from one patient is shown (bottom right).
# hematologic malignancies = assay: Phase 1 clinical trial of ABT-348 in subjects with hematologic malignancies, CDKN2A status of objective responders; assay type: in vivo, human; conditions: three patients assessed had deletion of CDKN2A (FIG. 2)
# Source text: Three patients assessed had deletion of CDKN2A.
# Source text for solid tumors: The Y axis list best % tumor change from baseline and the X axis are % tumor cells assessed with a deletion in CDKN2A. The hashed line indicates a putative cutoff separating patients with deletion from those without. […] Threshold to define deletion is <1.2 copies.
Compound,pharmacodynamics activity [1],sensitivity of OCI-AML2 cells after p16 knockdown (silencing p16 sensitizes) (OCI-AML2 cells),sensitivity of cell lines with CDKN2A deletion versus without [2],objective response in patients with deletion of CDKN2A (hematologic malignancies),"discontinuation due to toxicity (solid tumors; human, in vivo)","tumor response in patients without a CDKN2A deletion (solid tumors; solid tumors, patients without deletion (FIG. 1))","clinical response in patients with a deletion of CDKN2A (solid tumors; solid tumors, three patients showed a deletion of CDKN2A, best % tumor change from baseline (FIG. 1))"
"Nc1ncc(-c2cnn(CCO)c2)c2scc(-c3ccc(NC(=O)Nc4cccc(F)c4)cc3)c12 [ABT-348, 1-(4-(4-amino-7-(1-(2-hydroxyethyl)-1H-pyrazol-4-yl)thieno[3,2-c]pyridin-3-yl)phenyl)-3-(3-fluorophenyl)urea]",increase in the number of ≧4N cells,more sensitive,more sensitive,"One patient obtained a complete response, and the others had a partial response",the third discontinued due to toxicity,No patient without a deletion demonstrated a tumor response,Two of these patients had a clinical response
"CCN(CCCOc1ccc2c(Nc3cc(CC(=O)Nc4cccc(F)c4)n[nH]3)ncnc2c1)CCOP(=O)(O)O [AZD-1152, 2-[[3-({4-[(5-{2-[(3-Fluorophenyl)amino]-2-oxoethyl}-1H-pyrazol-3-yl)amino]-quinazolin-7-yl}oxy)propylliethyl)amino]ethyl dihydrogen phosphate]",,more sensitive,,,,,
Cc1ccc(F)c(NC(=O)Nc2ccc(-c3cccc4[nH]nc(N)c34)cc2)c1 [ABT-869],,not,,,,,
